# Columns and labels:
# Tankyrase 1/2 = target: T1, Tankyrase 1/2 (Homo sapiens, UniProt Q9H2K2+O95271); details: hek293
# T1 sequence (Q9H2K2 whole entry): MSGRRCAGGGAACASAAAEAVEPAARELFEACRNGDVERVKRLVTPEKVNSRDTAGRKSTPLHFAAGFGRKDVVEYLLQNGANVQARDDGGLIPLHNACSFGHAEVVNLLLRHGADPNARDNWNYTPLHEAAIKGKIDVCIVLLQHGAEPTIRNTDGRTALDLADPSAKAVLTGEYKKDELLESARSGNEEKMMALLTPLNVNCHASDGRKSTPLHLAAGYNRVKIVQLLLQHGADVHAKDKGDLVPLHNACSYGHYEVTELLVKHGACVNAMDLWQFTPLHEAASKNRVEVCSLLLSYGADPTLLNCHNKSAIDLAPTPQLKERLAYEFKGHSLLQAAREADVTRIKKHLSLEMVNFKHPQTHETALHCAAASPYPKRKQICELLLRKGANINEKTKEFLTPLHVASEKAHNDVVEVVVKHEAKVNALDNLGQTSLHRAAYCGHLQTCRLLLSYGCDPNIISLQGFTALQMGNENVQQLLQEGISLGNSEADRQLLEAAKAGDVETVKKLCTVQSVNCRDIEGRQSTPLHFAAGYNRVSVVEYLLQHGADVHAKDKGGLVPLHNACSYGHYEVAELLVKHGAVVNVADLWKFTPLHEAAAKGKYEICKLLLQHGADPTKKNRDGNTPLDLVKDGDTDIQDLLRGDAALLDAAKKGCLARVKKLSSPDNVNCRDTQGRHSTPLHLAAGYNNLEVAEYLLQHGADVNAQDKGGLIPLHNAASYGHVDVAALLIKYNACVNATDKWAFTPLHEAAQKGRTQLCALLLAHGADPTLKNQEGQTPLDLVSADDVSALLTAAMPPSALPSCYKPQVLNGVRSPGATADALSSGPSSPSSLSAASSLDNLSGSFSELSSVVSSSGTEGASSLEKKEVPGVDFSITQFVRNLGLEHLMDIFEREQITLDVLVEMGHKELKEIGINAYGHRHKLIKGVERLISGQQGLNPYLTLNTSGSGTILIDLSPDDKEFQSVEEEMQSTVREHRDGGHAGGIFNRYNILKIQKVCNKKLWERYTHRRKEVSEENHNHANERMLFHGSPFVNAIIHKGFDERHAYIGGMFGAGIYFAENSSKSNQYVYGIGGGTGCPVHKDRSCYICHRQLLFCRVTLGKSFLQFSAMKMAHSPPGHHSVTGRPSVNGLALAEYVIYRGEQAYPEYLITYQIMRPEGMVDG
# T1 sequence (O95271 whole entry): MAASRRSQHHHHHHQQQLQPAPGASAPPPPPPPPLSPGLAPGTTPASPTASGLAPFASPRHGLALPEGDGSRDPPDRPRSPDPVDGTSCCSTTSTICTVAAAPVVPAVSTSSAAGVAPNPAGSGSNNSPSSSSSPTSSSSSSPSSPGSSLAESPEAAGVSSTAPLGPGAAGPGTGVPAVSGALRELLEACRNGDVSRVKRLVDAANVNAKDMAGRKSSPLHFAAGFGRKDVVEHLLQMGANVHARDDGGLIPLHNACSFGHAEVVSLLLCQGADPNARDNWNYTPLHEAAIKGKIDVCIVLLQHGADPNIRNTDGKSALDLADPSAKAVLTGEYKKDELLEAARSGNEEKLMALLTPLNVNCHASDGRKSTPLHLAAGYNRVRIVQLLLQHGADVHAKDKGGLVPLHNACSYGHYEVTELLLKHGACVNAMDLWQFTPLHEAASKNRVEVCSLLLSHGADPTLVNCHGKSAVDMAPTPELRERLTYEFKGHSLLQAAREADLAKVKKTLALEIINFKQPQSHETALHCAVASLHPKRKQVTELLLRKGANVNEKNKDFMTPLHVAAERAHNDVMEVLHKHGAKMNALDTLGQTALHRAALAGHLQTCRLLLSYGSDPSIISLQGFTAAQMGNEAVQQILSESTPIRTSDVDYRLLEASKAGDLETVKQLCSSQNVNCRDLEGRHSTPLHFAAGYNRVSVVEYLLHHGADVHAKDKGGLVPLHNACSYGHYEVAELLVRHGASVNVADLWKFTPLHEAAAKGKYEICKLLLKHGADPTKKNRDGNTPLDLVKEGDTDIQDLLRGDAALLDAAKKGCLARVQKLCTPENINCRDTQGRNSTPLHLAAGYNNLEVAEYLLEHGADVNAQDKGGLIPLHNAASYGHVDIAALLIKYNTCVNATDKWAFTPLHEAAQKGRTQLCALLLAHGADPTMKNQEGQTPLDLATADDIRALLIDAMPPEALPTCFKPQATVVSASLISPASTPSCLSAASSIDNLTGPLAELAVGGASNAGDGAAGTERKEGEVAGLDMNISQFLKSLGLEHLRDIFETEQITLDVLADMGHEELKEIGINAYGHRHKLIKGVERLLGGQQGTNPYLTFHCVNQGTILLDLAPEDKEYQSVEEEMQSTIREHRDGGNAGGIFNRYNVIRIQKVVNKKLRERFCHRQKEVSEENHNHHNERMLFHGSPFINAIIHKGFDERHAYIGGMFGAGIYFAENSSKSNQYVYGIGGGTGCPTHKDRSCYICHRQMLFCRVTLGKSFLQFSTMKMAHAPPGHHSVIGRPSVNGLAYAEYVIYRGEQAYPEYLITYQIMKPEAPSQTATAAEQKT
# Description: Inhibition of TNKS/TNKS2 (unknown origin) expressed in HEK293 cells assessed as reduction in Wnt-signaling measured after 24 hrs by TCF-luciferase reporter gene assay
# [1] = target: T2, Poly [ADP-ribose] polymerase tankyrase-1 (Homo sapiens, UniProt O95271)
# T2 sequence (O95271 whole entry): T1 sequence (O95271 whole entry)
# Description: Inhibition of recombinant human N-terminal TEV cleavage site-fused/FLAG-poly his-tagged TNKS SAM-PARP domain (1024 to 1327 residues) expressed in Escherichia coli assessed as reduction in auto-PARylation preincubated for 10 mins followed by biotinylated-NAD+ addition and measured after 45 mins by ELISA
# [2] = target: Tankyrase 1/2 (Homo sapiens) (UniProt Q9H2K2+O95271); test: Inhibition of TNKS/TNKS2 in human COLO320DM cells assessed as upregulation of AXIN2 expression at 0.1 uM measured after 16 hrs by Western blot analysis relative to G007-LK; assay type: cell-based
# [3] = target: Cav1.2 (voltage-dependent L-type calcium channel subunit alpha-1C) (Rattus norvegicus, UniProt P22002); test: Displacement of [3H]nitrendipine from Cav1.2 in Wistar rat cerebral cortex at 10 uM measured after 90 mins by scintillation counting method relative to control; details: probe [3H]nitrendipine
# Chain of Cav1.2 (voltage-dependent L-type calcium channel subunit alpha-1C) (P22002 whole entry): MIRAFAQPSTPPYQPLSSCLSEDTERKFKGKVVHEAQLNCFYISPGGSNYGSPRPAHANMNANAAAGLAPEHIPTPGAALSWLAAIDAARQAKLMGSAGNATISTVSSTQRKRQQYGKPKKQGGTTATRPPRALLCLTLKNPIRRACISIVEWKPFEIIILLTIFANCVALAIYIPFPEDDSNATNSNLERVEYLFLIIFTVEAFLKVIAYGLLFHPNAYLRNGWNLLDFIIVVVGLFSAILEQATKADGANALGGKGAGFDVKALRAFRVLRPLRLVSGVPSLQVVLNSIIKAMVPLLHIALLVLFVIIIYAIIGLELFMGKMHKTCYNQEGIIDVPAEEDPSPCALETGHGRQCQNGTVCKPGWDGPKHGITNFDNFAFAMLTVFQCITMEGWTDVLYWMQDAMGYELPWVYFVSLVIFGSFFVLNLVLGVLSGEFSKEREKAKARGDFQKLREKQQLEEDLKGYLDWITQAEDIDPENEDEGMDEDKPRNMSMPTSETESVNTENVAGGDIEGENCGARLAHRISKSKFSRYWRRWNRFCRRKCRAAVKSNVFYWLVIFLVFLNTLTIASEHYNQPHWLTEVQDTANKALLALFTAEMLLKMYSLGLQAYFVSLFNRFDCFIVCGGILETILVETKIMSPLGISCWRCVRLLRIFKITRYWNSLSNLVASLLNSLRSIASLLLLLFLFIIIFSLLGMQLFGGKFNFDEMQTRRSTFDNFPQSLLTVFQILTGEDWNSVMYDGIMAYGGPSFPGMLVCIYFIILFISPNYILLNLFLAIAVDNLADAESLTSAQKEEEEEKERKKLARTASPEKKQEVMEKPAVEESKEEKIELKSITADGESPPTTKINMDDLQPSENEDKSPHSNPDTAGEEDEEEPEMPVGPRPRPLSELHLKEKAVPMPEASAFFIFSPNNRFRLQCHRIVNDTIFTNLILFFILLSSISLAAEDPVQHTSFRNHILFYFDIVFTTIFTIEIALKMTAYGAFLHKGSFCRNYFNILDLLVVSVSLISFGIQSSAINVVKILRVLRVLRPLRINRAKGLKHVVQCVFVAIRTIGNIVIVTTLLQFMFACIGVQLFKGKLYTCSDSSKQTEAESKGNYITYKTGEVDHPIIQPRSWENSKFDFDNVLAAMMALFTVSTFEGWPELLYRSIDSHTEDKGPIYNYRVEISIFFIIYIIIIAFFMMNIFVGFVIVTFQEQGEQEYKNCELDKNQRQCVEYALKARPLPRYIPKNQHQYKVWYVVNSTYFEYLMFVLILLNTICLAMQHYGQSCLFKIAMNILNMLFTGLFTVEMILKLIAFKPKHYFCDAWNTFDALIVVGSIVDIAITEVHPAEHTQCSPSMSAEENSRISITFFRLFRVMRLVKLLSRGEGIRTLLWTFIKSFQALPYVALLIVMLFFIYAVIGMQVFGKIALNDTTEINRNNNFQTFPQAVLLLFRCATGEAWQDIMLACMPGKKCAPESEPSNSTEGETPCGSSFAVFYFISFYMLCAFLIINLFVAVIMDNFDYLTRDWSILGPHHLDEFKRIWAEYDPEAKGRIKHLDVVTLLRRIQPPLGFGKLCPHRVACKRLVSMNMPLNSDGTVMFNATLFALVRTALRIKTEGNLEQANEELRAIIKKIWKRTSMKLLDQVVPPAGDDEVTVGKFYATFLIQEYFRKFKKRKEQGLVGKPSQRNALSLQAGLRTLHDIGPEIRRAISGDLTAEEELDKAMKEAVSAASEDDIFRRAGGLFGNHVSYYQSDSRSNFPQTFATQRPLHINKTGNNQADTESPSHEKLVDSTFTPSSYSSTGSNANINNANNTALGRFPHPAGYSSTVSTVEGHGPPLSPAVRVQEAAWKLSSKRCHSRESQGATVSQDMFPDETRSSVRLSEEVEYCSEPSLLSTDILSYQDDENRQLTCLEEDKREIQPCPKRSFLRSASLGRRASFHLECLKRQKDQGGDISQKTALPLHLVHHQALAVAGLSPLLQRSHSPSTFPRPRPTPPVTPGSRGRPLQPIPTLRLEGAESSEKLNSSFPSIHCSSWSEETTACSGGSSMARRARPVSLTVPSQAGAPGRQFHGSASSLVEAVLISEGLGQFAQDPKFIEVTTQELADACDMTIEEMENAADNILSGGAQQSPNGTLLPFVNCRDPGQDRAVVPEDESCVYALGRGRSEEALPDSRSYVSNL
# [4] = target: Prostaglandin G/H synthase 2 (Homo sapiens) (UniProt P35354); test: Inhibition of human recombinant COX2 expressed in Sf21 cells at 10 uM using arachidonic acid as substrate preincubated for 15 mins followed by substrate addition and measured after 3 mins by ampliflu red dye-based spectrofluorimetric method relative to control
# Chain of Prostaglandin G/H synthase 2 (Homo sapiens) (P35354 whole entry): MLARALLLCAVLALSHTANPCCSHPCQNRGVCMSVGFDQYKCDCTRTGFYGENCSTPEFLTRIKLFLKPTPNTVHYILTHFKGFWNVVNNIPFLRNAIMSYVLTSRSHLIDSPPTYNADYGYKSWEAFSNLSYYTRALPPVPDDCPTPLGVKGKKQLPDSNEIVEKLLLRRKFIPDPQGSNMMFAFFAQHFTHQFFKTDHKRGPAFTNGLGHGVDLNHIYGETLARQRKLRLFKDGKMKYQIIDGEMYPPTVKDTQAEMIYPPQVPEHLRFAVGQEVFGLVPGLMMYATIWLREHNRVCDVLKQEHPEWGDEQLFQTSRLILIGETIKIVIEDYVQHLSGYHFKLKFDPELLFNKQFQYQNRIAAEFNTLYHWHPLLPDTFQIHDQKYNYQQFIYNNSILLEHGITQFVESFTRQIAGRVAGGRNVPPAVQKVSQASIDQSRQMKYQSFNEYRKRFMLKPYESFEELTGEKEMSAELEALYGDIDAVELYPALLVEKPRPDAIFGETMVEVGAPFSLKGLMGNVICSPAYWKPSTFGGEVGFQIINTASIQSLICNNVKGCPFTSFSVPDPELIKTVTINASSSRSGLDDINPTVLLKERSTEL
# [5] = target: Tyrosine-protein kinase Lck (Homo sapiens) (UniProt P06239); test: Inhibition of full-length recombinant human LCK expressed in insect cells at 10 uM using poly(Glu:Tyr) as substrate preincubated for 15 mins followed by substrate addition and measured after 30 mins in presence of [gamma32P]ATP by scintillation counting method relative to control
# Chain of Tyrosine-protein kinase Lck (Homo sapiens) (P06239 2-509 limits assumed): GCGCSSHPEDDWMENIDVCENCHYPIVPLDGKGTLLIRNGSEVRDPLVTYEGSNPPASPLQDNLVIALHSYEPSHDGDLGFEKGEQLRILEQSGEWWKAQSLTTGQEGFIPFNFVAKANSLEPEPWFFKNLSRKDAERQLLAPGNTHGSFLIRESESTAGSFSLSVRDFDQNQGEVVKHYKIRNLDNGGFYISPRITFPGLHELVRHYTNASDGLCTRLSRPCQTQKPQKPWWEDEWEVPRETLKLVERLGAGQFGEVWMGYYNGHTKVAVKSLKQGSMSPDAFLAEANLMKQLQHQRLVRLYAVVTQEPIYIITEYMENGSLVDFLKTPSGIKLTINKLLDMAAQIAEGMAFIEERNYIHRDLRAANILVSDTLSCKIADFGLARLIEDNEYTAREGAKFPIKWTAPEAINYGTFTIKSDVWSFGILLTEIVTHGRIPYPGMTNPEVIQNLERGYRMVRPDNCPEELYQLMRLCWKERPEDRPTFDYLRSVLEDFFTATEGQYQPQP
# [6] = target: 5-hydroxytryptamine receptor 2B (Homo sapiens) (UniProt P41595); test: Displacement of [3H]LSD from full-length recombinant human 5HT2B receptor expressed in CHOK1 cells at 10 uM measured after 60 mins by scintillation counting method relative to control; assay type: cell-based
# Chain of 5-hydroxytryptamine receptor 2B (Homo sapiens) (P41595 whole entry): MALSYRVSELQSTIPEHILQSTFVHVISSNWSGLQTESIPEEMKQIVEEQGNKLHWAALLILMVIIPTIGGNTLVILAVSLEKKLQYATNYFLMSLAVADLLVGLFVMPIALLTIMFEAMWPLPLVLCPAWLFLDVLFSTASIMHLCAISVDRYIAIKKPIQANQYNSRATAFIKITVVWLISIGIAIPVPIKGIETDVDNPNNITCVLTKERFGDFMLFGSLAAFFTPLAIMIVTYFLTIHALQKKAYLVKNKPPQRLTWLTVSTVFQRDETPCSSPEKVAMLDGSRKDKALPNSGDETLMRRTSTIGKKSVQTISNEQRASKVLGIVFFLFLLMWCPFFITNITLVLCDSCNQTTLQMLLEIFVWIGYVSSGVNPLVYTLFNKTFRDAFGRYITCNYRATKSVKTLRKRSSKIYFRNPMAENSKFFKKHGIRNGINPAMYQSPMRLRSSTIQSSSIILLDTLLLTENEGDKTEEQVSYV
Structure (SMILES),IC50 (Tankyrase 1/2),IC50 [1],fold change (FC) [2],"inhibition at 1.5 h, 10 µM [3]",inhibition [4],inhibition [5],inhibition [6]
COc1ccccc1N1CCN(c2nc3c(c(=O)[nH]2)CCCC3)CC1,42.9 nM,20.5 nM,–,–,–,–,–
O=c1[nH]c(N2CCC3(CC2)CN(CCO)c2cc(F)cc(F)c23)nc2c1CCCC2,–,–,4.42,> 20%,> 20%,> 20%,> 20%

# — ChEMBL document CHEMBL4387706, “Discovery of Novel Spiroindoline Derivatives as Selective Tankyrase Inhibitors” (J Med Chem, 2019)
